Counter-ions that a name gives are not always drawn.
Target: HPK1 (Homo sapiens (Human), UniProt Q92918)
Test: HPK Lantha Binding Assay (TR-FRET, Tracer-222 / Eu-Anti-GST Ab)
Conditions: 2 nM HPK1, 2 nM Eu-Anti-GST Ab, 15 nM Tracer222, 60 min incubation; Morrison ki fit
Description: Methods for Biological evaluation to assess compound inhibition of HPK-1:
I. Compound Dilution: • 1. Prepare 12.5 uL/well of 5 mM of compounds (100×) to column 2 and column 13 & 10 ul/well DMSO in column 3-12, 14-23 and well A1-H1, I24-P24 of compound plate with Bravo. For reference compound, the top concentration is 1 mM • 2. Add 10 ul 2 mM staurosporine in well J1-P1 and A24-H24 • 3. Perform 11 point 5-fold compound serial dilution with Bravo • a. transfer 2.5 ul compounds from column 2 and column 13 to 10 ul of DMSO in column 3 and column 14 & so on • 4. Centrifuge the compound plate at 2500 rpm for 1 min • 5. Transfer 80 nl compounds into assay plate using Echo. One compound plate makes two assay plates • 6. Seal the assay plate and store in N2 cabinet.
2 nM HPK1, 2 nM Eu-Anti-GST Ab, 15 nM Tracer222, 60 min incubation
III. HPK Lantha Binding Assay: • 1. Add 4 ul 2×HPK1 and Eu-anti-GST antibody into each well of assay plate using Multidrop • 2. Incubate at 23 C incubator for 1 h • 3. Add 4 ul 2× Tracer-222 into each well of assay plate using Multidrop • 4. Incubate at 23 C incubator for 1 h • 5. Read the assay plate in Envision • a. TR_FRET, 340 ex/615 and 665 em • b. 100 usec Delay, 200 usec integration
IV. Analysis: • 1. Compound Ki was analyzed using Morrison ki fit model in XL-fit • a. fit=(1−((((E+x)+(Ki*(1[…](S/Kd))))−(((((E+x)+(Ki*(1+(S/Kd))))^2)−((4*E)*x))^0.5))/(2*E))) • res=(y-fit) • b. Parameters: • E=enzyme concentration • S=Tracer222 concentration, Kd=Tracer222 Kd • All in the same units (uM)

HPK1, sequence (Q92918 1-346): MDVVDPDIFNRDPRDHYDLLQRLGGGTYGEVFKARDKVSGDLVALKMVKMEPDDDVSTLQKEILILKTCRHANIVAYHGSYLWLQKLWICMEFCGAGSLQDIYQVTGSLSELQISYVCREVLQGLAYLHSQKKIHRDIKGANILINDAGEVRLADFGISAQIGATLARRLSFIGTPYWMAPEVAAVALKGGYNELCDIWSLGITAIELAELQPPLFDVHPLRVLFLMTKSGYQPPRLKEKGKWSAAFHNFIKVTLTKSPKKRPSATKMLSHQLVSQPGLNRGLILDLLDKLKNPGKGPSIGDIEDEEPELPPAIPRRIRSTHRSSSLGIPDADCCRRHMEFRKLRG

SMILES | Ki
CCc1c(Cl)[nH]c2ncc(-c3ccc(N)c(C(=O)N(C)C)c3)cc12 [Compound 1-3, 2-amino-5-(2-chloro-3-ethyl-1H-pyrrolo[2,3-b]pyridin-5-yl)-N,N-dimethylbenzamide] | 0.9 nM
Cc1cc2cc(-c3ccc(N)c(C(=O)N(C)C)c3)cnc2[nH]1 [Compound 1-17, 2-amino-N,N-dimethyl-5-(2-methyl-1H-pyrrolo[2,3-b]pyridin-5-yl)benzamide] | 1300 nM
CN(C)C(=O)c1cc(-c2cnc3[nH]c(Cl)c(CCO)c3c2Cl)ccc1N [Compound 1-22, 2-amino-5-(2,4-dichloro-3-(2-hydroxyethyl)-1H-pyrrolo[2,3-b]pyridin-5-yl)-N,N-dimethylbenzamide] | 9.4 nM
CCc1c(Cl)[nH]c2ncc(-c3cccc(N4CCOCC4=O)c3)cc12 [Compound 1-1, 4-(3-(2-chloro-3-ethyl-1H-pyrrolo[2,3]pyridin-5-yl)phenyl)morpholin-3-one] | 2 nM
O=C1COCCN1c1cccc(-c2cnc3[nH]c(CO)c(C(F)(F)F)c3c2)c1 [Compound 1-13, 4-(3-(2-(hydroxymethyl)-3-(trifluoromethyl)-1H-pyrrolo[2,3-b]pyridin-5-yl)phenyl)morpholin-3-one] | 1700 nM
Cc1[nH]c2ncc(-c3cccc(N4CCOCC4CO)n3)cc2c1C(F)(F)F (stereo not drawn) [Compound 1-15, (4-(6-(2-methyl-3-(trifluoromethyl)-1H-pyrrolo[2,3-b]pyridin-5-yl)pyridin-2-yl)morpholin-3-yl)methanol] | 75 nM
Cc1[nH]c2ncc(-c3cccc(N4CCOCC4=O)n3)cc2c1C(F)(F)F [Compound 1-8, 4-(6-(2-methyl-3-(trifluoromethyl)-1H-pyrrolo[2,3-b]pyridin-5-yl)pyridin-2-yl)morpholin-3-one] | 68 nM
Cc1[nH]c2ncc(-c3cccc(N4CCCNC4=O)n3)cc2c1C(F)(F)F [Compound 1-16, 1-(6-(2-methyl-3-(trifluoromethyl)-1H-pyrrolo[2,3-b]pyridin-5-yl)pyridin-2-yl)tetrahydropyrimidin-2(1H)-one] | 82 nM
CCc1c(Cl)[nH]c2ncc(-c3cccc(N4CCOCC4=O)n3)cc12 [Compound 1-5, 4-(6-(2-chloro-3-ethyl-1H-pyrrolo[2,3-b]pyridin-5-yl)pyridin-2-yl)morpholin-3-one] | 2 nM
CCc1c(Cl)[nH]c2ncc(-c3ccc(N)c(C(=O)N(C)C)n3)cc12 [Compound 1-2, 3-amino-6-(2-chloro-3-ethyl-1H-pyrrolo[2,3-b]pyridin-5-yl)-N,N-dimethylpicolinamide] | 3 nM
CCc1c(Cl)[nH]c2ncc(-c3ccc(N)c(C(=O)N(C)C)c3F)cc12 [Compound 1-27, 6-amino-3-(2-chloro-3-ethyl-1H-pyrrolo[2,3-b]pyridin-5-yl)-2-fluoro-N,N-dimethylbenzamide] | 2.7 nM
CN(C)C(=O)c1c(N)ccc(-c2cnc3[nH]c(Cl)c(CCO)c3c2)c1F [Compound 1-20, 6-Amino-3-[2-chloro-3-(2-hydroxyethyl)-1H-pyrrolo[2,3-b]pyridin-5-yl]-2-fluoro-N,N-dimethylbenzamide] | 17 nM
CN(C)C(=O)c1c(N)ccc(-c2cnc3[nH]c(Cl)c(CCO)c3c2Cl)c1F [Compound 1-26, 6-amino-3-(2,4-dichloro-3-(2-hydroxyethyl)-1H-pyrrolo[2,3-b]pyridin-5-yl)-2-fluoro-N,N-dimethylbenzamide] | 12 nM
Cc1[nH]c2ncc(-c3cc(N)cc(-c4ncccc4CO)c3)cc2c1C(F)(F)F [Compound 1-12, (2-(3-amino-5-(2-methyl-3-(trifluoromethyl)-1H-pyrrolo[2,3-b]pyridin-5-yl)phenyl)pyridin-3-yl)methanol] | 24 nM
Cc1[nH]c2ncc(-c3ccc(N)c(C(=O)N(C)C)c3)cc2c1C(F)(F)F [Compound 1-10, 2-amino-N,N-dimethyl-5-(2-methyl-3-(trifluoromethyl)-1H-pyrrolo[2,3-b]pyridin-5-yl)benzamide] | 32 nM
Cc1[nH]c2ncc(-c3ccc(N)c(C(=O)N(C)C)n3)cc2c1C(F)(F)F [Compound 1-9, 3-amino-N,N-dimethyl-6-(2-methyl-3-(trifluoromethyl)-1H-pyrrolo[2,3-b]pyridin-5-yl)picolinamide] | 76 nM
COCc1c(Cl)[nH]c2ncc(-c3ccc(N)c(C(=O)N(C)C)c3F)cc12 [Compound 1-23, 6-amino-3-(2-chloro-3-(methoxymethyl)-1H-pyrrolo[2,3-b]pyridin-5-yl)-2-fluoro-N,N-dimethylbenzamide] | 160 nM
CCc1c(Cl)[nH]c2ncc(-c3ccnc(N4CCOC4=O)n3)cc12 [Compound 1-7, 3-(4-(2-chloro-3-ethyl-1H-pyrrolo[2,3-b]pyridin-5-yl)pyrimidin-2-yl)oxazolidin-2-one formate] | 33 nM
CCc1c(Cl)[nH]c2ncc(-c3cccc(C4NCCNC4=O)c3)cc12 (stereo not drawn) [Compound 1-25, 3-(3-(2-chloro-3-ethyl-1H-pyrrolo[2,3-b]pyridin-5-yl)phenyl)piperazin-2-one] | 31 nM
Cc1[nH]c2ncc(-c3ccc(N)c(N4CCOCC4=O)n3)cc2c1C(F)(F)F [Compound 1-11, 4-(3-amino-6-(2-methyl-3-(trifluoromethyl)-1H-pyrrolo[2,3-b]pyridin-5-yl)pyridin-2-yl)morpholin-3-one] | 13 nM
CCc1c(Cl)[nH]c2ncc(-c3ccc(N)c(C(=O)N4CC(O)C4)n3)cc12 [Compound 1-6, (3-amino-6-(2-chloro-3-ethyl-1H-pyrrolo[2,3-b]pyridin-5-yl)pyridin-2-yl)(3-hydroxyazetidin-1-yl)methanone formate] | 15 nM
O=C1COCCN1c1cccc(-c2cnc3[nH]c(Cl)c(CCF)c3c2)c1 [Compound 1-14, 4-(3-(2-chloro-3-(2-fluoroethyl)-1H-pyrrolo[2,3-b]pyridin-5-yl)phenyl) morpholin-3-one] | 17 nM
O=C1COCCN1c1cccc(-c2cnc3[nH]c(Cl)c(CCO)c3c2)c1 [Compound 1-21, 4-{3-[2-Chloro-3-(2-hydroxyethyl)-1H-pyrrolo[2,3-b]pyridin-5-yl]phenyl}morpholin-3-one] | 89 nM
CCc1c(Cl)[nH]c2ncc(-c3ccc(C4NCCNC4=O)cc3)cc12 (stereo not drawn) [Compound 1-24, 3-(4-(2-chloro-3-ethyl-1H-pyrrolo[2,3-b]pyridin-5-yl)phenyl)piperazin-2-one] | 32 nM
CCc1c(C)[nH]c2ncc(-c3ccc(N)c(C(=O)N(C)C)c3)cc12 [Compound 1-4, 2-amino-5-(3-ethyl-2-methyl-1H-pyrrolo[2,3-b]pyridin-5-yl)-N,N-dimethylbenzamide] | 15 nM
CCc1c(F)[nH]c2ncc(-c3ccc(N)c(C(=O)N(C)C)c3F)cc12 [Compound 1-19, 6-Amino-3-(3-ethyl-2-fluoro-1H-pyrrolo[2,3-b]pyridin-5-yl)-2-fluoro-N,N-dimethylbenzamide] | 1 nM
CCc1c(F)[nH]c2ncc(-c3cccc(N4CCOCC4=O)c3)cc12 [Compound 1-18, 4-[3-(3-Ethyl-2-fluoro-1H-pyrrolo[2,3-b]pyridin-5-yl)phenyl]morpholin-3-one] | 4 nM
